In ChEMBL document CHEMBL1132080, “Investigation of the S3 site of thrombin: design, synthesis and biological activity of 4-substituted 3-amino-2-pyridones incorporating P1-argininals” (Bioorg Med Chem Lett, 1999) one finds IC50 data, which are given here for eight molecules.

Experiment [1] addresses Prothrombin (Homo sapiens, UniProt P00734). The experiment can be described thus: Concentration required for the in vitro inhibitory activity against human enzyme, thrombin cleavage of the chromogenic substrate.
The target of experiment [2] is Serine protease 1 (Homo sapiens, UniProt P07477). The experiment can be described thus: Concentration required for the in vitro inhibitory activity against human enzyme, trypsin cleavage of the chromogenic substrate.
Experiment [3] addresses Plasminogen (Homo sapiens, UniProt P00747). The experiment can be described thus: Concentration required for the in vitro inhibitory activity against human enzyme, Plasmin cleavage of the chromogenic substrate.
Experiment [4] addresses Coagulation factor X (Homo sapiens, UniProt P00742). Kind of experiment: Concentration required for the in vitro inhibitory activity against human enzyme, Factor Xa cleavage of the chromogenic substrate.

Bounds are passed on as bounds.

Plasminogen, sequence (P00747 97-580 limits assumed): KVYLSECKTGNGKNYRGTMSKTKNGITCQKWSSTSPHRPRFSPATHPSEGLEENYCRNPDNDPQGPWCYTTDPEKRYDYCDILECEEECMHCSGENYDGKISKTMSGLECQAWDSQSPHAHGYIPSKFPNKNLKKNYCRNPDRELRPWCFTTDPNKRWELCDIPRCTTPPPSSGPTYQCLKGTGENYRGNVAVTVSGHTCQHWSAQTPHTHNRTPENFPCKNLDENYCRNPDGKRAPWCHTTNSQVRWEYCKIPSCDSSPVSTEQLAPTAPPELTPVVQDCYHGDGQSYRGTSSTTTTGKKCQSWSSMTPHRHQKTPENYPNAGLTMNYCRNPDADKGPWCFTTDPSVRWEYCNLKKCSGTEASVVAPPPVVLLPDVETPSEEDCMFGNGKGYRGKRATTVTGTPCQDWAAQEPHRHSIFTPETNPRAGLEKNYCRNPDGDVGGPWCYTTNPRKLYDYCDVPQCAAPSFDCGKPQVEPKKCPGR
Plasminogen, sequence (P00747 581-810 limits assumed): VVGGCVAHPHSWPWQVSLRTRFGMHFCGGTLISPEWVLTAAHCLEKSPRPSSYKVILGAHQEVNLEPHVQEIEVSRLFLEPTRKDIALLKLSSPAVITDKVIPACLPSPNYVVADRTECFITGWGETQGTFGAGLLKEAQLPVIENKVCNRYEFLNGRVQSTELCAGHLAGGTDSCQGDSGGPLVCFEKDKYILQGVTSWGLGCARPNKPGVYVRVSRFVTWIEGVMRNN
Coagulation factor X, sequence (P00742 41-179 limits assumed): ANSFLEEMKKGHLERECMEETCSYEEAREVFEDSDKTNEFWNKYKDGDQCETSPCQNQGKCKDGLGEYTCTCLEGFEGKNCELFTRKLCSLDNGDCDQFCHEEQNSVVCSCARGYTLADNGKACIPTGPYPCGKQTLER
Coagulation factor X, sequence (P00742 235-488 limits assumed): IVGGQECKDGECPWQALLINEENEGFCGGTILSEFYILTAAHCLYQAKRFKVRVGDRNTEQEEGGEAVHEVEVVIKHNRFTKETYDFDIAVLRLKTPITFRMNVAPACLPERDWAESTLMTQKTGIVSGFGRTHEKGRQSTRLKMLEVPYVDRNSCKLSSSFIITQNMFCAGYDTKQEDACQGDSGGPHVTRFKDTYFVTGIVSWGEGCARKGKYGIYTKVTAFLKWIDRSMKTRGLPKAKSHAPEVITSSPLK
Serine protease 1, sequence (P07477 whole entry): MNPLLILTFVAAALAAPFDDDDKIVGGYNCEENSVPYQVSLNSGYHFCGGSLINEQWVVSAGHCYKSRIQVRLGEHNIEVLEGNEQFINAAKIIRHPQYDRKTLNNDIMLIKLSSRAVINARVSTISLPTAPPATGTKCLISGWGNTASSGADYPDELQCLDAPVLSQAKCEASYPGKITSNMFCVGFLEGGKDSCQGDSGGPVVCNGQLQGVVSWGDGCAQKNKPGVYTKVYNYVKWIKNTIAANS

On to `CS(=O)(=O)Nc1c(CCc2ccccc2)ccn(CC(=O)N[C@H]2CCCN(C(=N)N)C2O)c1=O` (some centres not stated), for which the IC50 in experiment [1] was 7.95 nM; in experiment [2], 135 nM; in experiment [3], above 2500 nM; in experiment [4] it was above 2500 nM.

As for `CNS(=O)(=O)Nc1c(CCc2ccccc2)ccn(CC(=O)N[C@H]2CCCN(C(=N)N)C2O)c1=O` (some centres not stated), the IC50 in experiment [1] was found to be 50.5 nM; in experiment [2], 103 nM; in experiment [3], 250 nM; in experiment [4], 2500 nM.

In the case of `CS(=O)(=O)Nc1c(CCCc2ccccc2)ccn(CC(=O)N[C@H]2CCCN(C(=N)N)C2O)c1=O` (some centres not stated), the IC50 is 203 nM in experiment [1], 479 nM in experiment [2], above 2500 nM in experiment [3] and above 2500 nM in experiment [4].

With `N=C(N)N1CCC[C@H](NC(=O)Cn2ccc(CCc3ccccc3)c(NS(=O)(=O)CC(F)(F)F)c2=O)C1O` (some centres not stated), the IC50 in experiment [1] is 194 nM; in experiment [2] it was 1220 nM; in experiment [3], above 2500 nM; in experiment [4], above 2500 nM.

With `N=C(N)N1CCC[C@H](NC(=O)CN2CCCC(NS(=O)(=O)Cc3ccccc3)C2=O)C1O` (some centres not stated), the concentration for half-maximal inhibition (IC50) in experiment [1] was 6.2 nM; in experiment [2] it was 791 nM; in experiment [3], above 2500 nM; in experiment [4] it was 2500 nM.

Turning to `CS(=O)(=O)Nc1c(CCC2CCCCC2)ccn(CC(=O)N[C@H]2CCCN(C(=N)N)C2O)c1=O` (some centres not stated), the IC50 in experiment [1] was 256 nM; in experiment [2], 257 nM; in experiment [3], above 2500 nM; in experiment [4] it was 2500 nM.

In the case of `N=C(N)N1CCC[C@H](NC(=O)Cn2ccc(CCc3ccccc3)c(NS(=O)(=O)c3ccccc3)c2=O)C1O` (some centres not stated), the IC50 in experiment [1] is 89.1 nM; in experiment [2] it was 188 nM; in experiment [3], above 2500 nM; in experiment [4], 2360 nM.

In the case of `CC(=O)Nc1c(CCc2ccccc2)ccn(CC(=O)N[C@H]2CCCN(C(=N)N)C2O)c1=O` (some centres not stated), the IC50 in experiment [1] is 472 nM; in experiment [2], 1220 nM; in experiment [3] it was above 2500 nM; in experiment [4], above 2500 nM.

What is called IC50 is the concentration needed to halve the response being measured.
